PMC4889062, “Tachykinin-Related Peptides Share a G Protein-Coupled Receptor with Ion Transport Peptide-Like in the Silkworm Bombyx mori” (PLoS ONE, 2016)
Values belong to the molecule of their own block, whether it stands above or below them. Peptide text beside a SMILES is read from it.

How the values were obtained:
BNGR-A24 [1] = biological target: T1, BNGR-A24 (Bombyx mori, UniProt B3XXN7); experiment: cell-based
T1 sequence (B3XXN7 1-391): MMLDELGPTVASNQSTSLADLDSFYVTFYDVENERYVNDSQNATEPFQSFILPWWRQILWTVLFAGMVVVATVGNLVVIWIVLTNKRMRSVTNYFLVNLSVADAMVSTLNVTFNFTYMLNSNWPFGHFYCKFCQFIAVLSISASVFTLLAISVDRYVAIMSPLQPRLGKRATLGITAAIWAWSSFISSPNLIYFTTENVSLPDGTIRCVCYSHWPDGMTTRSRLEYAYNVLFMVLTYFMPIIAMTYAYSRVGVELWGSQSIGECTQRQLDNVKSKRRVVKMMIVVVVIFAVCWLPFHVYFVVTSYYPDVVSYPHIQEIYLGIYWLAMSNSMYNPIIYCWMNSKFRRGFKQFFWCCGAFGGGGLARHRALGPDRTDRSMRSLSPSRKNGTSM
Protocol: (§1) The assays were performed as previously reported. Briefly, HEK293T cells seeded on a glass-based dish were co-transfected with pME18S plasmids carrying BNGRs and the promiscuous G protein alpha subunit, Gα15. Following 24 h incubation, the transfected cells were loaded with 500 μL of a Ca^2+ indicator solution (2 μM Fluo-4 AM [Dojin Chemicals, Kumamoto, Japan] and 0.01% Pluronic-F 127 [Anaspec, San Jose, CA, USA] in Opti-MEM [Life Technologies]) and incubated at 37°C for 30 min in a dark room. The cells were washed twice with Ringer’s solution and then 800 μL Ringer’s solution was added to the cells. Within a given run time, 100 μL of the following compounds were added sequentially: Ringer’s solution (at 15 s, vehicle control), the peptide of interest or a mixture with its potential competitor (at 60 s), and 100 μM ATP (at 120 s, an experimental control). Fluo-4-derived fluorescence was chronologically monitored using a confocal laser-scanning microscope (FV-1000D; Olympus, Tokyo, Japan), with the preinstalled dye mode for Fluo-3. At least three independent experiments were performed. Dose-response curves were generated and EC50 values were calculated from the obtained fitting curves.
In order to evaluate whether the three TRP receptor candidates, BNGR-A24, -A32, and -A33, function as receptors for B. mori TRPs, the response of these three BNGRs to chemically synthesized TRPs was examined using the Ca^2+ imaging assay.
The response of HEK293T cells co-expressing BNGR-A24 (A) or BNGR-A32 (B) and promiscuous mouse Gα15 to the TRPs was monitored using the Ca^2+ imaging technique. Dose-response curves are depicted as relative fluorescent intensity (mean ± S.D.; n = 3).

BNGR-A24 [2] = biological target: T1, BNGR-A24; experiment: Competitive binding assay, RR-labeled ligands and CHO cells expressing EGFP-fused BNGR-A24; settings: CHO cells, EGFP-fused BNGR-A24, 4°C
Protocol: Binding assays were performed as previously reported. Briefly, CHO cells were transfected with 2 μg of pME18S plasmids harboring enhanced green fluorescent protein (EGFP)-fused BNGR cDNA. The binding assay was performed with cells 24 h post transfection. The cells were pre-incubated at 4°C for 30 min prior to the assay to minimize receptor internalization by ligand binding. Following the addition of 50 μL of non-labeled ligand as a potential competitor, 50 μL of RR-labeled ligand was added. Subsequent to incubation at 4°C for 60 min, the cells were washed twice with an ice-cold fixation buffer (4% formaldehyde in PBS) and then 500 μL of the fixation buffer was added. The fluorescence derived from EGFP and RR was observed using a confocal microscope (FV-1000D) with preinstalled dye modes for EGFP and DsRed, respectively. The fluorescent data obtained from six individual cells of at least two independent experiments were analyzed using Fluoview software (Olympus).
Following 30-min exposure of the cells to RR-labeled rITPL or TK-4, both red fluorescence (derived from the RR-labeled ligands) and green fluorescence (derived from EGFP C-terminally fused to BNGR-A24) were observed on the cell surface, indicating ligand-receptor binding (Fig 4). […] In this case, the addition of 20 μM rITPL reduced the ligand-derived signal by approximately 90% compared to that observed without the addition of unlabeled ligand.
Fig 4 In vitro competitive binding assay of rITPL and TK-4 to BNGR-A24. (A–D) Microscopic imaging. The binding of RR-labeled ligands (A and C, rITPL; B and D, TK-4) and CHO cells expressing EGFP-fused BNGR-A24 was examined in the presence of potential competitors (A, TK-4; B, rITPL; C and D, spantide I [SP]). EGFP and RR fluorescences were observed by confocal microscopy. Co-localization is presented as yellow in the merged images (Merge). Representative images of cells from at least two independent experiments are shown. (E–H) Relative fluorescent intensity obtained from experiment images (A)–(D), respectively. […]

[3] = test system: BmN cells (BNGR-A24-expressing); experiment: Competitive cGMP assay in BmN cells; assay type: cell-based, Bombyx mori; settings: 30 min, IBMX
Protocol: BmN cells were plated in 12-well tissue culture plates (2 × 10^5 cells/well; Asahi glass, Yokohama, Japan) and maintained in normal growth medium (TC-100 [Applichem, Darmstadt, Germany], 10% FBS, and 50 μg/mL gentamycin). At 3 days post-seeding, the cells were pre-incubated in 800 μL of assay medium (TC-100 supplemented with 1 mM 1-methyl-3-isobutylxanthine [IBMX; Sigma-Aldrich, Tokyo, Japan]) and 1 mM phenylmethylsulfonyl fluoride for 10 min at 28°C. Following pre-incubation, 100 μL of a potential competitor and 100 μL of the peptide of interest were added sequentially to the medium and incubated at 28°C for 30 min. […] The extracted cAMP and cGMP were quantified in duplicate using a cAMP ELISA kit (Cayman Chemicals, Ann Arbor, MI, USA) and a cGMP EIA system (GE Healthcare, Hino, Japan), respectively. […]
Since ITPL and TK-4 are competitive ligands of BNGR-A24, we hypothesized that TK-4 might inhibit the cGMP signal induced by ITPL via the binding of ITPL to BNGR-A24. To confirm this hypothesis, we added an excess of TK-4 to BmN cells exposed to rITPL and evaluated the stimulatory effect of ITPL on the cGMP signal.
Fig 5 Effects of TK-4, rITPL, and spantide I on cyclic nucleotide levels in BmN cells. Intracellular cGMP (A) and cAMP (B) levels in BmN cells following 30-min incubation with the peptide and reagent of interest at the indicated concentrations were measured. […]

[4] = biological target: EGFP-fused BNGR-A24 (Bombyx mori neuropeptide G protein-coupled receptor A24) (Bombyx mori) (UniProt B3XXN7); experiment: fluorescent-ligand binding on cells (confocal microscopy); CHO cells expressing EGFP-fused BNGR-A24, pre-incubated at 4°C for 30 min; unlabeled competitor added, then RR-labeled ligand; 4°C for 60 min; washed and fixed (4% formaldehyde in PBS); RR fluorescence normalized by EGFP
[5] = biological target: EGFP-fused BNGR-A24 (Bombyx mori neuropeptide G protein-coupled receptor A24) (Bombyx mori) (UniProt B3XXN7)
BNGR-A24 [6] = biological target: T1, BNGR-A24; experiment: Ca2+ imaging assay of BNGR-A24 with competitor added together with the ligand; assay type: cell-based
Protocol: The assays were performed as previously reported. […] At least three independent experiments were performed.
Next, we examined the effect of simultaneous addition of spantide I and rITPL on ligand competition. The dose-response curve of 10–300 nM rITPL shifted in a similar manner to that observed for TK-4.
Fig 3 Effect of spantide I on the response of BNGR-A24 to rITPL and TK-4. Spantide I (SP), a potential competitor, was added together with rITPL or TK-4 and the response of BNGR-A24 was monitored using the Ca^2+ imaging assay. Dose-response curves of the responses are presented as relative fluorescent intensity (mean ± S.D.; n = 3). Asterisks indicate significant differences for treatment with the same ligand without spantide I (P < 0.05; Dunnett’s test).

[7] = biological target: BNGR-A32 (Bombyx mori neuropeptide G protein-coupled receptor A32) (Bombyx mori)
BNGR-A32 = biological target: T2, BNGR-A32 (Bombyx mori, UniProt B3XXP5); experiment: Ca2+ imaging assay of BNGR-A32 in HEK293T cells co-expressing Gα15; assay type: cell-based; settings: HEK293T cells co-expressing BNGR-A32 and promiscuous mouse Gα15; Fluo-4 Ca2+ imaging; from fitted dose-response curves, n = 3
T2 sequence (B3XXP5 1-372): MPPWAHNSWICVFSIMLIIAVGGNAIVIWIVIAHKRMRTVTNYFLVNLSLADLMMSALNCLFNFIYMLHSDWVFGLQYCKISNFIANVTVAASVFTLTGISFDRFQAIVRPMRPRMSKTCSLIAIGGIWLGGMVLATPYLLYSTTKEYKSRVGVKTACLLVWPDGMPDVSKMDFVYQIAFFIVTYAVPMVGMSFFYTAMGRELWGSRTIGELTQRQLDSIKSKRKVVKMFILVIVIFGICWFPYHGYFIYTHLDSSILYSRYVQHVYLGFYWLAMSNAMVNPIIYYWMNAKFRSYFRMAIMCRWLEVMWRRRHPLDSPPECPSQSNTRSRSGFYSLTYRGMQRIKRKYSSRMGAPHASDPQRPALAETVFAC
Protocol: as §1, with “curves. […]” for “curves.”
The response of HEK293T cells co-expressing BNGR-A24 (A) or BNGR-A32 (B) and promiscuous mouse Gα15 to the TRPs was monitored using the Ca^2+ imaging technique. […]

Molecule: CC[C@H](C)[C@H](NC(=O)[C@H](Cc1ccccc1)NC(=O)[C@H](CCCCN)NC(=O)CNC(=O)[C@H](CCCNC(=N)N)NC(=O)[C@@H](NC(=O)[C@H](CO)NC(=O)[C@H](CC(C)C)NC(=O)[C@H](CC(=O)O)NC(=O)[C@H](Cc1ccc(O)cc1)NC(=O)[C@@H]1CCCN1)[C@@H](C)CC)C(=O)NCC(=O)N[C@H](C(=O)N[C@@H](CCCNC(=N)N)C(N)=O)C(C)C [TK-4] (H-PYDLSIRGKFIGVR-NH2; N-terminus assumed)
EC50 (BNGR-A24 [1]): 0.27 nM
Fluorescence of RR-labeled rITPL on the cell surface (BNGR-A24 [2]; 1–100 μM unlabeled TK-4 added before RR-labeled rITPL): gradually decreased
Effect on rITPL-induced cGMP levels ([3]; BmN cells exposed to 100 nM rITPL, ≥3 μM TK-4 added as competitor): significant decrease
Intracellular cGMP levels ([3]; BmN cells, peptide alone at concentrations as high as 10 μM, 28°C, cGMP EIA): failed to increase

percent reduction of the RR-labeled TK-4 signal at 20 uM rITPL [4]: 90%
Molecule: Recombinant B. mori ion transport peptide-like (rITPL) (ligand)

Molecule: CC[C@H](C)[C@H](N)C(=O)N1CCC[C@H]1C(=O)N[C@@H](CCC(N)=O)C(=O)NCC(=O)N[C@@H](Cc1ccccc1)C(=O)N[C@@H](CC(C)C)C(=O)NCC(=O)N[C@@H](CCSC)C(=O)N[C@@H](CCCNC(=N)N)C(N)=O [TK-1] (H-IPQGFLGMR-NH2; N-terminus assumed)
EC50 (BNGR-A24 [1]): 7.1 nM

EC50 of the Ca2+ imaging response (Fluo-4) of HEK293T cells co-expressing BNGR-A24 and Galpha15 [5]: 0.27 nM
Molecule: B. mori tachykinin-related peptide TK-4

Molecule: CSCC[C@H](NC(=O)[C@H](CC(N)=O)NC(=O)[C@H](C)NC(=O)[C@H](C)N)C(=O)N[C@@H](Cc1c[nH]cn1)C(=O)N[C@@H](CCC(N)=O)C(=O)N[C@@H](Cc1ccccc1)C(=O)N[C@@H](Cc1ccc(O)cc1)C(=O)NCC(=O)N[C@H](C(=O)N[C@@H](CCCNC(=N)N)C(N)=O)C(C)C [TK-3] (H-AANMHQFYGVR-NH2; N-terminus assumed)
EC50 (BNGR-A24 [1]): 0.79 nM

Molecule: spantide I
Effect on response of BNGR-A24 to rITPL (BNGR-A24 [6]; 50 μM spantide I added with 10–300 nM rITPL, n = 3, vs no competitor): significantly lower
Effect on response of BNGR-A24 to TK-4 (BNGR-A24 [6]; simultaneous treatment with 10 μM or 50 μM spantide I, n = 3, Dunnett's test P < 0.05): significantly decreased
Fluorescence derived from RR-labeled TK-4 (BNGR-A24 [2]; 50 μM spantide I as competitor): nearly complete quenching
Fluorescence derived from RR-labeled rITPL (BNGR-A24 [2]; 50 μM spantide I as competitor): nearly complete quenching

EC50 of the Ca2+ imaging response (Fluo-4) of HEK293T cells co-expressing BNGR-A24 and Galpha15 [5]: 0.79 nM
Molecule: B. mori tachykinin-related peptide TK-3

EC50 of the Ca2+ imaging response (Fluo-4) of HEK293T cells co-expressing BNGR-A24 and Galpha15 [5]: 0.49 nM
Molecule: B. mori tachykinin-related peptide TK-2

EC50 of the Ca2+ imaging response (Fluo-4) of HEK293T cells co-expressing BNGR-A32 and Galpha15 [7]: 0.48 nM
EC50 of the Ca2+ imaging response (Fluo-4) of HEK293T cells co-expressing BNGR-A24 and Galpha15 [5]: 2.3 nM
Molecule: B. mori tachykinin-related peptide TK-5

Molecule: CSCC[C@H](NC(=O)CNC(=O)[C@H](Cc1ccccc1)NC(=O)[C@H](Cc1ccccc1)NC(=O)CNC(=O)[C@H](CCSC)NC(=O)[C@H](CCC(N)=O)NC(=O)CN)C(=O)N[C@@H](CCCNC(=N)N)C(N)=O [TK-5] (H-GQMGFFGMR-NH2)
EC50 (BNGR-A24 [1]): 2.3 nM
EC50 (BNGR-A32): 0.48 nM

EC50 of the Ca2+ imaging response (Fluo-4) of HEK293T cells co-expressing BNGR-A24 and Galpha15 [5]: 7.1 nM
Molecule: B. mori tachykinin-related peptide TK-1
